The values below come from patent US20240336596A1, “PARP7 INHIBITOR AND USE THEREOF” (NOVOSTAR PHARMACEUTICALS, LTD., priority 2022, published 2024).

One assay addresses T1, recombinant human PARP7 protein (Homo sapiens, UniProt Q7Z3E1).
T1 construct: purchased Abcam ab271651
T1 sequence (Q7Z3E1 1-657): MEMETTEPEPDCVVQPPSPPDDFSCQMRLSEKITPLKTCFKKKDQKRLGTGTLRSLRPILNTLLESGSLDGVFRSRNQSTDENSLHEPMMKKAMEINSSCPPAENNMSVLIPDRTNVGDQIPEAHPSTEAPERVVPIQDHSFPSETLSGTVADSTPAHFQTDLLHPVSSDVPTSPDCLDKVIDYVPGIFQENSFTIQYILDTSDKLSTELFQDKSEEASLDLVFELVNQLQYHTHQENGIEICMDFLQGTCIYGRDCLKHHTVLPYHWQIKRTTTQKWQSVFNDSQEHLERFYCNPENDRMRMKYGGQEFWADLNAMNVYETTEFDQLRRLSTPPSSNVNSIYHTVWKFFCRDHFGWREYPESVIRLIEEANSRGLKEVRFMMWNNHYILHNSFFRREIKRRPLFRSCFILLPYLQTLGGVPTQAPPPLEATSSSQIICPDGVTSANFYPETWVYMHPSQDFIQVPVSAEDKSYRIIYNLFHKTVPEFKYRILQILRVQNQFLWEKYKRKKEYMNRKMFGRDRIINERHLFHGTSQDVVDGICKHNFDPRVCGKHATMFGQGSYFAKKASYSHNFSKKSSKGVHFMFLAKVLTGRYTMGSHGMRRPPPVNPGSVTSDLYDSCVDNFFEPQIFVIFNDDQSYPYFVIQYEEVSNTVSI
As to the kind of experiment: Inhibition of PARP7 biological enzyme activity (histone-coated plate, Biotin-NAD+, chemiluminescence). Type of assay: biochemical. As to conditions: recombinant human PARP7, Biotin-NAD+ substrate. How it is done:
The recombinant human PARP7 protein kit (Abcam, catalog number ab271651) was used for the assay. According to the kit instructions, 30 μL of histone coating solution (1.5 μg/mL) was first applied to the 384 well holes of the reaction plate and coated at 4° C. for 2 hours. Then, the histone coated solution was washed off, and 50 μL sealing buffer was added to each well, and the sealing buffer was washed off after incubation at 25° C. for 60 minutes. 1000 times the concentration of the compound was 10 configured and diluted from 1 mM to 0.05 μM, and the configured compound was transferred to 384-well plates with 25 nL per well using Echo. The final concentration of the compound in the reaction system was 1000 nM, 333.33 nM, 111.11 nM, 37.03 nM, 12.34 nM, 4.11 nM, 1.37 nM, 0.45 nM, 0.15 nM, 0.05 nM, which was used as the test hole. At the same time, 25 nL DMSO was added to the negative control well and the positive control well. The PARP7 enzyme solution with a concentration of 1.67 times was prepared, and the PARP7 enzyme solution was added to the test hole and the positive control hole with 15 μL each, while the negative control hole was added with 15 μL base Buffer, and incubated at 25° C. for 15 minutes. Then 10 μL 2.5 times Biotin-NAD+ substrate solution was added and incubated at 25° C. for 60 min. After the reaction solution was washed off, the 384-well reaction plates were treated with closed buffer solution diluted with streptavidin-HRP (1:500), each well was 30 μL, and incubated at 25° C. for 30 min. After the HRP buffer was washed off, 30 μL HRP chemiluminescent substrate mixture was added to each well, and the luminescence signal (RLU) of each well was detected by Envision. Calculation formula: Inhibition rate %=(average positive control-RLU compound)/(average positive control-average negative control))*100%. The dose-response curves of each compound were fitted by GraphPad Prism 8 to get IC50 values. IC50 values less than 0.01 μM are labeled as “+++”, IC50 values from 0.01 to 0.1 µM are labeled as “++”, and IC50 values greater than 0.1 to 10.0 μM are labeled as “+”.
As a reminder, the IC50 is the concentration needed to halve the response being measured. On to `CCN(C[C@H](C)Nc1cn[nH]c(=O)c1C(F)(F)F)OCC(=O)N1CCN(c2ncc(C(F)(F)F)cn2)CC1` [Example 3, (S)-5-((1-(ethyl(2-oxo-2-(4-(5-(trifluoromethyl)pyrimidin-2-yl)piperazin-1-yl)ethoxy)amino)propan-2-yl)amino)-4-(trifluoromethyl)pyridazin-3(2H)-one], for which the IC50 was in the range of 10 to 100 nM.

Turning to `C/C(=N\OC[C@H](C)Nc1cn[nH]c(=O)c1C(F)(F)F)C(=O)N1CCN(c2ncc(C(F)(F)F)cn2)CC1` [Example 16, (S,E)-5-((1-(((1-oxo-1-(4-(5-(trifluoromethyl)pyrimidin-2-yl)piperazin-1-yl)propan-2-ylidene)amino)oxy)propan-2-yl)amino)-4-(trifluoromethyl)pyridazin-3(2H)-one], the half-maximal inhibitory concentration (IC50) fell in the range of 10 to 100 nM. On to `C[C@@H](CN(C)OCC(=O)N1CCN(c2ncc(C#N)cn2)CC1)Nc1cn[nH]c(=O)c1C(F)(F)F` [Example 4, (S)-2-(4-(2-((methyl(2-((6-oxo-5-(trifluoromethyl)-1,6-dihydropyridazin-4-yl)amino)propyl)amino)oxy)acetyl)piperazin-1-yl)pyrimidine-5-carbonitrile], for which the IC50 fell in the range of 10 to 100 nM.

The test system of a further assay is NCI-H1373 cancer cells. As to the kind of experiment: NCI-H1373 cancer cell growth inhibition (CellTiter-Glo, 144 hours). Type of assay: cell-based. As to conditions: Homo sapiens, 144 hours culture. How it is done: Promega CellTiter-Glo cell activity assay kit (Item No.: Promege-G7573) was used to determine the cell activity. 90 μL NCI-H1373 cell suspension (ATCC, catalog No. CRL-5866, batch No. 58078716) was spread into the pores of the 96-well plate with 3500 cells per well. After 24 hours, the 10 μL prepared 10× compound working solution was added into the pores of the cell culture plate with a final concentration of 10 μM. 3.3333 μM, 1.1111 μM, 0.3704 μM, 0.1235 μM, 0.0412 μM, 0.0137 μM, 0.0046 μM, 0.0015 μM, 0.0005 μM, 10 μL DMSO was added to the solvent control, and the final concentration of DMSO was 0.2%. The 0-day plates were collected for analysis, and after 144 hours of culture, the growth condition of cells was detected according to the instructions of CellTiter-Glo cell activity assay kit. Add 50 μL of CellTiter-Glo working liquid into each hole of the cell culture plate, shake the plates in the dark for 2 minutes until cell lysis, and place at room temperature for 10 minutes to detect the luminous signal (RUL) of each cell hole on the 2104En Vision board reader.
Calculation formula: Growth inhibition rate %=(1−(RLU compound−RLU Day0)/(RLU solvent control−RLU Day0))*100%. The dose-response curves of each compound were fitted by GraphPad Prism 8 to obtain IC50 values.
For the matter, IC50 values less than 0.1 μM are labeled “+++”, values from 0.1 to 1 μM are labeled “++”, and values greater than 1 to 10 μM are labeled “+”.
On the technique in general: In ATP-based viability assays light output follows the ATP content of the culture.
Molecule `C[C@@H](CON(C)C(=O)CC1CCN(c2ncc(C(F)(F)F)cn2)CC1)Nc1cn[nH]c(=O)c1C(F)(F)F` [Example 45, (S)—N-methyl-N-(2-((6-oxo-5-(trifluoromethyl)-1,6-dihydropyridazin-4-yl)amino)propoxy)-2-(1-(5-(trifluoromethyl)pyrimidin-2-yl)piperidin-4-yl)acetamide] gave an IC50 of 1000 to 10000 nM. On the same count and under the same terms, then `C[C@@H](CONC(=O)C1(C2CCN(c3ncc(C(F)(F)F)cn3)CC2)CC1)Nc1cn[nH]c(=O)c1C(F)(F)F` [Example 50, (S)—N-(2-((6-oxo-5-(trifluoromethyl)-1,6-dihydropyridazin-4-yl)amino)propoxy)-1-(1-(5-(trifluoromethyl)pyrimidin-2-yl)piperidin-4-yl)cyclopropanecarboxamide], with 1000 to 10000 nM; and `[2H]C(C(=O)NOC[C@H](C)Nc1cn[nH]c(=O)c1C(F)(F)F)C1=CCN(c2ncc(C(F)(F)F)cn2)CC1` (some centres unmarked) [Example 62], with 1000 to 10000 nM.

Molecule `C[C@@H](CONC(=O)CC1CCN(c2ncc3c(n2)CC[C@@]3(C)O)CC1)Nc1cn[nH]c(=O)c1C(F)(F)F` [Example 61] had an IC50 of 1000 to 10000 nM. Still for that read-out and setting: then `C[C@@H](CONC(=O)CC1CCN(c2ccc(C#N)cn2)CC1)Nc1cn[nH]c(=O)c1C(F)(F)F` [Example 34, (S)-2-(1-(5-cyanopyridin-2-yl)piperidin-4-yl)-N-(2-((6-oxo-5-(trifluoromethyl)-1,6-dihydropyridazin-4-yl)amino)propoxy)acetamide], with 100 to 1000 nM.

For the molecule `C[C@@H](CONC(=O)C=C1CCN(c2ncc(C(F)(F)F)cn2)CC1)Nc1cn[nH]c(=O)c1C(F)(F)F` [Example 20, (S)—N-(2-((6-oxo-5-(trifluoromethyl)-1,6-dihydropyridazin-4-yl)amino)propoxy)-2-(1-(5-(trifluoromethyl)pyrimidin-2-yl)piperidin-4-ylidene)acetamide], the IC50 was in the range of 1000 to 10000 nM.

For the molecule `C[C@@H](CONC(=O)CC1CCN(c2ncc3c(n2)CCC3=O)CC1)Nc1cn[nH]c(=O)c1C(F)(F)F` [Example 42, (S)—N-(2-((6-oxo-5-(trifluoromethyl)-1,6-dihydropyridazin-4-yl)amino)propoxy)-2-(1-(5-oxo-6,7-dihydro-5H-cyclopenta(d)pyrimidin-2-yl)piperidin-4-yl)acetamide], the IC50 fell in the range of 1000 to 10000 nM. On the same count and under the same terms, then `C[C@@H](CONC(=O)C[C@H]1CCN(c2ncc(C(F)(F)F)cn2)C[C@H]1O)Nc1cn[nH]c(=O)c1C(F)(F)F` [Example 54, 2-((3S,4R)-3-hydroxy-1-(5-(trifluoromethyl)pyrimidin-2-yl)piperidin-4-yl)-N—((S)-2-((6-oxo-5-(trifluoromethyl)-1,6-dihydropyridazin-4-yl)amino)propoxy)acetamide], with 1000 to 10000 nM. Same read-out and setting: to `C[C@@H](CONC(=O)C[C@H]1CCN(c2ncc(C(F)(F)F)cn2)C[C@@H]1O)Nc1cn[nH]c(=O)c1C(F)(F)F` [Example 55, 2-((3R,4R)-3-hydroxy-1-(5-(trifluoromethyl)pyrimidin-2-yl)piperidin-4-yl)-N—((S)-2-((6-oxo-5-(trifluoromethyl)-1,6-dihydropyridazin-4-yl)amino)propoxy)acetamide] belongs 1000 to 10000 nM; to `CC1CN(c2ncc(C(F)(F)F)cn2)CCC1CC(=O)NOC[C@H](C)Nc1cn[nH]c(=O)c1C(F)(F)F` (stereo partly drawn) [Example 52, 2-(3-methyl-1-(5-(trifluoromethyl)pyrimidin-2-yl)piperidin-4-yl)-N—((S)-2-((6-oxo-5-(trifluoromethyl)-1,6-dihydropyridazin-4-yl)amino)propoxy)acetamide], 1000 to 10000 nM. For the molecule `C[C@@H](CONC(=O)CN1CCC2(CCN(c3ncc(C(F)(F)F)cn3)CC2)C1)Nc1cn[nH]c(=O)c1C(F)(F)F` [Example 56, (S)—N-(2-((6-oxo-5-(trifluoromethyl)-1,6-dihydropyridazin-4-yl)amino)propoxy)-2-(8-(5-(trifluoromethyl)pyrimidin-2-yl)-2,8-diazaspiro(4.5)decan-2-yl)acetamide], the IC50 is 1000 to 10000 nM. Still for that read-out and setting: then `C[C@@H](CONC(=O)CC1CCN(c2ccc(C(F)(F)F)cn2)CC1)Nc1cn[nH]c(=O)c1C(F)(F)F` [Example 32, (S)—N-(2-((6-oxo-5-(trifluoromethyl)-1,6-dihydropyridazin-4-yl)amino)propoxy)-2-(1-(5-(trifluoromethyl)pyridin-2-yl)piperidin-4-yl)acetamide], with 100 to 1000 nM. The same measure, in the same setting: then `CC1=C(CC(=O)NOC[C@H](C)Nc2cn[nH]c(=O)c2C(F)(F)F)CCN(c2ncc(C3CC3)cn2)C1` [Example 31, (S)-2-(1-(5-cyclopropylpyrimidin-2-yl)-5-methyl-1,2,3,6-tetrahydropyridin-4-yl)-N-(2-((6-oxo-5-(trifluoromethyl)-1,6-dihydropyridazin-4-yl)amino)propoxy)acetamide], with 100 to 1000 nM.

The molecule `C[C@@H](CONS(=O)(=O)CC1CCN(c2ncc(C(F)(F)F)cn2)CC1)Nc1cn[nH]c(=O)c1C(F)(F)F` [Example 47, (S)—N-(2-((6-oxo-5-(trifluoromethyl)-1,6-dihydropyridazin-4-yl)amino)propoxy)-1-(1-(5-(trifluoromethyl)pyrimidin-2-yl)piperidin-4-yl)methanesulfonamide] showed an IC50 of 1000 to 10000 nM.
